The test concerns the target T1, VEGF-A (Homo sapiens, UniProt P15692).
T1 construct: purchased ProQinase GmbH
T1 sequence (P15692 27-191 isoform P15692-4): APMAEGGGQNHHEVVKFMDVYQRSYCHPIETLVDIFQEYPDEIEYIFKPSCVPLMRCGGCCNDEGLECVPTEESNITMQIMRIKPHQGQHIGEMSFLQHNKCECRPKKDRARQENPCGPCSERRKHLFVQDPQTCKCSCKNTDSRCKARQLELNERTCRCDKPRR
Kind of test: VEGF-A induced sprouting of HUVEC, spheroid-based cellular angiogenesis assay. Format: cell-based. As to conditions: VEGF-A 25 ng/mL preincubated with compound, 24 h, read-out: VEGF-A1 IC50. An outline of the steps: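 Compound (final 100 down to 1.56×10^−6 M) was mixed with growth factor (final 25 ng/mL) for 30 min at 37°C, then added onto collagen-embedded 400-cell HUVEC spheroids.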

Structures are written as SMILES. Where only a bound is given, the exact number is not on record here.

Regarding `O=C(O)c1cc(O)c(C(=O)Nc2ccc(-c3nnn[nH]3)cc2)cc1O` [Ia-003a-Tz, 4-(4-(1H-tetrazol-5-yl)phenyl-aminocarbonyl)-2,5-dihydroxybenzoic acid], the IC50 worked out at 13 µM.
For `O=C(O)c1cc(O)cc(CSCc2cc(O)cc(C(=O)O)c2O)c1O` [IVc-058a, 3-((2,5-Dihydroxy-3-carboxyphenyl)methylthiomethyl)-2,5-dihydroxybenzoic acid] the value was 83 µM; for `O=C(O)Cc1cc(O)c(C(=O)Nc2ccccc2-c2nnn[nH]2)cc1O` [IIIa-001aTz], 12 µM.
Under `O=C(Nc1ccccc1-c1nnn[nH]1)c1cc(O)c(C(=O)Nc2ccccc2-c2nnn[nH]2)cc1O` [Ic-001aTz2, N1,N4-bis(2-(1H-tetrazol-5-yl)phenyl)-2,5-dihydroxyterephthalamide] stands 45 µM.
With `O=C(O)c1cc(O)c(C(=O)Nc2ccccc2-c2nnn[nH]2)cc1O` [Ia-001a-Tz, 4-(2-(1H-tetrazol-5-yl)phenyl-aminocarbonyl)-2,5-dihydroxybenzoic acid], the IC50 came to 17 µM.
Under `O=C(O)Cc1cc(O)c(C(=O)Nc2c(C(=O)O)cccc2C(=O)O)cc1O` [IIIa-013a, 2-(4-(carboxymethyl)-2,5-dihydroxybenzamido)isophthalic acid] stands 43 µM; under `COC(=O)c1cc(OC(C)=O)cc(CS(=O)(=O)Cc2cc(OC(C)=O)cc(C(=O)OC)c2OC(C)=O)c1OC(C)=O` [IVc-059a-E2-A4], 25 µM.
Consider `O=C(O)c1cc(NC(=O)c2cc(O)c(C(=O)O)cc2O)cc(NC(=O)c2cc(O)c(C(=O)O)cc2O)c1` [Ib-010a, 3,5-bis(2,5-dihydroxy-4-carboxybenzoylamino)benzoic acid], for which the IC50 came out at 15 µM.
Take `O=C(O)c1cc(O)cc(CS(=O)(=O)Cc2cc(O)cc(C(=O)O)c2O)c1O` [IVc-059a, 3-((2,5-Dihydroxy-3-carboxyphenyl)methylsulfonylmethyl)-2,5-dihydroxybenzoic acid]: the IC50 came out at 12 µM.
Under `O=C(O)c1cc(NC(=O)c2cc(O)c(C(=O)Nc3ccc(O)c(C(=O)O)c3)cc2O)ccc1O` [Ic-007a, 5-(4-(3-carboxy-4-hydroxyphenylaminocarbonyl)-2,5-dihydroxybenzamido)-2-hydroxy benzoic acid] stands 3.2 µM; under `O=C(O)c1cc(O)c(C(=O)Nc2ccccc2C(=O)O)cc1O` [Ia-001a, 4-(2-carboxyphenylaminocarbonyl)-2,5-dihydroxybenzoic acid], 7.3 µM; under `O=C(O)c1cc(O)ccc1NC(=O)c1cc(O)cc(C(=O)Nc2ccc(O)cc2C(=O)O)c1O` [IIc-009a, 2-(3-(2-carboxy-4-hydroxyphenylaminocarbonyl)-2,5-dihydroxybenzamido)-5-hydroxyl benzoic acid], 182 µM.
For `O=C(O)c1ccccc1CNC(=O)c1cc(O)cc(C(=O)O)c1O` [IIa-053a, 3-(2-Carboxyphenylmethylaminocarbonyl)-2,5-dihydroxybenzoic acid] the value was 37 µM.
Under `CC(=O)N(Cc1cc(O)c(C(=O)O)cc1O)Cc1cc(O)c(C(=O)O)cc1O` [IIIc-057a, N,N-Bis(4-carboxy-2,5-dihydroxyphenylmethyl)acetamide] stands 38 µM.
Regarding `O=C(O)c1cc(O)c(C(=O)Nc2ccccc2S(=O)(=O)O)cc1O` [Ia-001c, 2,5-dihydroxy-4-(2-sulfophenylaminocarbonyl)benzoic acid], the IC50 is at least 100 µM.
`O=C(O)c1cc(O)c(CN(Cc2cc(O)c(C(=O)O)cc2O)Cc2cc(O)c(C(=O)O)cc2O)cc1O` [IIIc-061a, Tris(4-carboxy-2,5-dihydroxyphenylmethyl)amine]: the half-maximal inhibitory concentration (IC50) was 21 µM.
On to `O=C(O)c1cc(NC(=O)c2cc(O)c(C(=O)Nc3ccccc3-c3nnn[nH]3)cc2O)ccc1O` [Ic-001a-Tz/004a, 5-(4-(2-(1H-tetrazol-5-yl)phenylaminocarbonyl)-2,5-dihydroxybenzamido)-2-hydroxy benzoic acid], for which the IC50 was determined as 25 µM.
For the compound `O=C(O)c1cc(NC(=O)c2cc(O)c(C(=O)O)cc2O)cc(C(=O)O)c1` [Ia-015a, 5-(4-carboxy-2,5-dihydroxybenzamido)isophthalic acid], the IC50 is 19 µM.

What is called IC50 is the concentration at which inhibition is half-maximal.

These data come from patent US20230150951A1, “2,5- OR 2,6-DISUBSTITUTED HYDROQUINONE DERIVATIVES WITH AT LEAST ONE CARBOXY, SULFO OR AMIDO GROUP USEFUL AS MEDICAMENTS” (OM PHARMA SA, priority 2020, published 2023).
